Test results as given in patent EP3884941A1, “INFLAMMASOME INHIBITORS AND USE THEREOF” (CENTRO DE INVESTIGACION PRINCIPE FELIPE, priority 2020, dated 2021).

Columns and labels:
caspase-3 = target: T1, caspase-3 (Homo sapiens, UniProt P42574); assay: Caspase-3 activation assay; format: biochemical; details: recombinant caspase-3; MM01 5 µM (Figure 2A)
T1 sequence (P42574 29-277): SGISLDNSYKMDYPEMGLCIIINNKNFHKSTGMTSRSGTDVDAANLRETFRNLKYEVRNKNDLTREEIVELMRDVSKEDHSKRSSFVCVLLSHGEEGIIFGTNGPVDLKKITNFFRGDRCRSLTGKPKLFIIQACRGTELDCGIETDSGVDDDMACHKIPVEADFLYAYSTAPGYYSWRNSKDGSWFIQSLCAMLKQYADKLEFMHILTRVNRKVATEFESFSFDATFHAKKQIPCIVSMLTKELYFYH
Protocol: Compounds were incubated with caspase-3 (2 nM) in reaction buffer (100 mM NaCl, 50 mM Hepes pH 7.4, 10 mM DTT, 1 mM EDTA, 10% glycerol, 0.1% CHAPS) for 20 min at RT. Enzyme activity was spectrophotometrically monitored by adding Ac-DEVD-pNA (200 µM) substrate.

NLRP3 inflammasome [1] = assay: human PBMCs cellular assay, LPS plus ATP; format: cell-based; details: IL-1β and LDH release; MM01 1, 5 or 10 µM (Figure 5E, 5F)
Protocol: Human peripheral blood mononuclear cells (PBMCs) are lymphocytes and monocytes. PBMCs were separated from the whole blood by a density gradient centrifugation method using Ficoll Histopaque. Purified PBMCs were plated in 24-well plates at 5000000 cells/well in free-serum RPMI medium. Cells were primed for 3 h with 10 ng/ml pure LPS followed by 4 h with compounds and 5 mM ATP. Supernatants were harvested and clarified by centrifugation at 1500 rpm at RT and cytokine and caspase-1 activation analysis was performed as previously described.

NLRP3 inflammasome [2] = assay: inflammasome activation cellular assay, LPS plus nigericin, PMA-differentiated THP-1 cells; format: cell-based, human; details: MM01 10 µM
Protocol: The MM01 compound was evaluated in the THP-1, or PMA-differentiated THP-1 cells (50 nM PMA for 24h) stimulated with lipopolysaccharide (LPS) plus adenosine triphosphate (ATP) to stimulate ASC-dependent inflammasomes NLRP3. Briefly, 1x10^6 cells were seeded in 6-well plates in 1 mL RPMI media that contained 1% FBS. Cells were either mock-treated or primed with compounds at the indicated concentrations for 30 min, followed by treatment with 100 ng/mL LPS (Sigma) and 2.5 mM ATP (Sigma) for 6 h at 37°C. In the case of nigericin stimulation, cells were primed with LPS for 3h, and then 10 µM nigericin (Sigma) was added for 30 min. Supernatants were harvested and clarified by centrifugation at 1500 rpm at RT, and a cytokine analysis was performed. Both IL-1β secretion and the release of IL-18were monitored by an ELISA assay (BD OptEIA™ Human IL-1β ELISA Kit and Human IL-18 Module Set eBioscience) following the manufacturer's instructions. Cell viability was analyzed in parallel by evaluating the release of lactate dehydrogenase (LDH) according to a commercial kit (CytoTox-ONE™ Homogeneous Membrane Integrity Assay; Promega). The release of LDH was calculated using the formula: the release of LDH (%) = 100x (Abs490 treated -Abs490 untreated cells)/ Abs490 untreated cells lysed with Triton 9% (maximum release of LDH).
The supernatants of the treated cells were precipitated by the chloroform-methanol method. Pellets were obtained by lysing cells in 25 mM of Tris-HCI pH 7.4, 1 mM EDTA, 1 mM EGTA and 1% SDS, plus protease and phosphatase inhibitors. The protein concentration was determined by the BCA protein assay. Samples were separated in a 14% SDS-PAGE gel, transferred to a nitrocellulose membrane and blocked with 5% skimmed milk for 1 h. Then the membrane was incubated overnight with primary antibodies: α-casp1 (1:1000; Cell Signaling 2225), α-IL-1β (1:1000; Acris R1130P), α-NLRP3 (1:1000; Cell Signaling 15101), α-tubulin (1:3000; Abcam ab6160) at 4°C. […]

[3] = PMA-differentiated THP-1, LPS 100 ng/ml + nigericin 10 µM

Compound: C=CCN1C(=O)/C(=C2/C(=O)Nc3ccccc32)SC1=S [MM01]
- caspase-3 activity (caspase-3): do not act on
- LPS/ATP stimulation of isolated human PBMCs (NLRP3 inflammasome [1]): inhibits
- IL-1β secretion (NLRP3 inflammasome [2]; [3]): decreased
- IL-18 secretion (NLRP3 inflammasome [2]; [3]): decreased
- pyroptotic cell death (NLRP3 inflammasome [2]; PMA-differentiated THP-1, LPS + nigericin, LDH release): decreased
